Laboratory results from patent US9932314B2, “Pyrazole compounds and their use as T-type calcium channel blockers” (IDORSIA PHARMACEUTICALS LTD, priority 2015, dated 2018).

What follows are compounds tested against T1, voltage-dependent T-type calcium channel subunit alpha-1G (Cav3.2) (Homo sapiens, UniProt O95180) (assay: FLIPR calcium flux assay, HEK293 cells recombinantly expressing Cav3.2). Conditions: Cav3.2-channel, Fluo-4-AM, 3 min incubation, stimulation with 10 mM CaCl2.
T1 construct: expressed in transfected cells; host or cells: HEK293
T1 sequence (O95180 whole entry): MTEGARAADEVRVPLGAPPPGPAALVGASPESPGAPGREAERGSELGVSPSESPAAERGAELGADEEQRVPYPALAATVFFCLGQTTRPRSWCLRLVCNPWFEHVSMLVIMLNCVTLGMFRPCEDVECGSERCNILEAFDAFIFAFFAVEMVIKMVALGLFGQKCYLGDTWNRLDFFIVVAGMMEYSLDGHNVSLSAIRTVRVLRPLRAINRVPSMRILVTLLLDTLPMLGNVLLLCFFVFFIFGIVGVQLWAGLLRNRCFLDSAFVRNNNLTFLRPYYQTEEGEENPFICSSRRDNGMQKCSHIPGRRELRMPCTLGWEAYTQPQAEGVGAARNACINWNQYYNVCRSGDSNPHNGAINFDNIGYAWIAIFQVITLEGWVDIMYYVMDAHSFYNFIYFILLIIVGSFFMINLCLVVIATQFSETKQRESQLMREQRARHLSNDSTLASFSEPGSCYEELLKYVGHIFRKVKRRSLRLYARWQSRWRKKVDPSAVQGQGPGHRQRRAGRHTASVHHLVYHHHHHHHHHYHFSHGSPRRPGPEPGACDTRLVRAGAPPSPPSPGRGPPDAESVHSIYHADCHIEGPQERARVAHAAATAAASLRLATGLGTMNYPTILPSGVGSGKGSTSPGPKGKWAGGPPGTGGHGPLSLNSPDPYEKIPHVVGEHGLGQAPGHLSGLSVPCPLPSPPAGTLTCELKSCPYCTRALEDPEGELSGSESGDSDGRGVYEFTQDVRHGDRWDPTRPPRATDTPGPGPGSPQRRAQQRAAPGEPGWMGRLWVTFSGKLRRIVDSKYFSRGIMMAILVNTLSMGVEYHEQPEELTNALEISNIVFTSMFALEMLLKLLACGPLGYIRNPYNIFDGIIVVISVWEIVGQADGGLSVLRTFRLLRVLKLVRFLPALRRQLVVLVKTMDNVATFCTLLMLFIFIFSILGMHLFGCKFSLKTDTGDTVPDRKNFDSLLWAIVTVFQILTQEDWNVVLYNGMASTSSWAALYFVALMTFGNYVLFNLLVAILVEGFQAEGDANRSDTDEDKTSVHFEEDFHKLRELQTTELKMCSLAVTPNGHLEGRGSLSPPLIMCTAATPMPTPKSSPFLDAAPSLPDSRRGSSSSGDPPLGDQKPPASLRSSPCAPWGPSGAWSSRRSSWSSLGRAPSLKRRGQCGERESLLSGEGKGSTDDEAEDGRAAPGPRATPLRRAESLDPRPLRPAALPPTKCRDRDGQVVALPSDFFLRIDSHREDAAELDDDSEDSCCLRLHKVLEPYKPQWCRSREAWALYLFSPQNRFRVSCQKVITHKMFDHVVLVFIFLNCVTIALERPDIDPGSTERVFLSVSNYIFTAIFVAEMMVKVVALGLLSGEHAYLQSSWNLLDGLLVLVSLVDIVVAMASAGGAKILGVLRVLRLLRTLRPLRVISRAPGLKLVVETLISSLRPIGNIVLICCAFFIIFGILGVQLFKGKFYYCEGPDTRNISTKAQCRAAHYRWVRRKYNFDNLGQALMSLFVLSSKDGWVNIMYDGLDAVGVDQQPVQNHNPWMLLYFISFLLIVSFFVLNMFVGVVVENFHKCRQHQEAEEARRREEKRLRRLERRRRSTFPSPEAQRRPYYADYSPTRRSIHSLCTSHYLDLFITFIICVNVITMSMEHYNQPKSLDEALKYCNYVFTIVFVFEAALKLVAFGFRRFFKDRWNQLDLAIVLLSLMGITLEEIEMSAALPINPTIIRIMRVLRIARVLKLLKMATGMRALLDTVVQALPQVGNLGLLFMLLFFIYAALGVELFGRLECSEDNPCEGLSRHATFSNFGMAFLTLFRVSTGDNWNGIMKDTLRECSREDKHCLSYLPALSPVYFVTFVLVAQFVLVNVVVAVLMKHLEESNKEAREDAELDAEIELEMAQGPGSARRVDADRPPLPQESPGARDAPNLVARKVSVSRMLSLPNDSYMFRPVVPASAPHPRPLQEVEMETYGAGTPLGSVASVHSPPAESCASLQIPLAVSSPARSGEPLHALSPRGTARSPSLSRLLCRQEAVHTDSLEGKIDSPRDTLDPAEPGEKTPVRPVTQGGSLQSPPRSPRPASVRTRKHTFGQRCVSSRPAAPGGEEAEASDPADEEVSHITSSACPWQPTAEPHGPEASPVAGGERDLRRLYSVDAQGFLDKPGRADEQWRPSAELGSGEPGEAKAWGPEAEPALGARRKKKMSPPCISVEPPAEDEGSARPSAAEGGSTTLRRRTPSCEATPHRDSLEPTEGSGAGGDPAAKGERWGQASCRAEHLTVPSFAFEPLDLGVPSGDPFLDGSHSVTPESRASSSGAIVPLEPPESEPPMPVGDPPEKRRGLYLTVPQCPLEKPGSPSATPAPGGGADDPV
Format: cell-based
In short: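 HEK293 cells stably expressing human Cav3.2 were loaded with Fluo-4-AM. Compounds diluted in TEAC buffer (pH 7.2) were preincubated for 3 min, then Ca2+ entry was triggered by 10 mM final CaCl2. Inhibition curves were fitted sigmoidally to the area under the fluorescence trace.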
`Cc1ccc(Cn2ccc(NC(=O)Cc3ccc(OC4CC(F)(F)C4)cc3)n2)nc1C#N` [Example 374, N-[1-(6-Cyano-5-methyl-pyridin-2-ylmethyl)-1H-pyrazol-3-yl]-2-[4-(3,3-difluoro-cyclobutoxy)-phenyl]-acetamide] gave an IC50 of 107 nM.
Compound `O=C(Cc1ccc(CC2CC2)cc1)Nc1ccn(Cc2ccc(F)cc2)n1` [Example 158, 2-(4-Cyclopropylmethyl-phenyl)-N-[1-(4-fluoro-benzyl)-1H-pyrazol-3-yl]-acetamide] has an IC50 of 11 nM.
Compound `N#Cc1ccc(Cn2ccc(NC(=O)Cc3ccc(N4CCC4)nc3)n2)cc1` [Example 111, 2-(6-Azetidin-1-yl-pyridin-3-yl)-N-[1-(4-cyano-benzyl)-1H-pyrazol-3-yl]-acetamide] has an IC50 of 1330 nM.
Compound `N#Cc1cc(Cn2ccc(NC(=O)Cc3ccc(C(F)(F)F)cc3)n2)ccc1F` [Example 342, N-[1-(3-Cyano-4-fluoro-benzyl)-1H-pyrazol-3-yl]-2-(4-trifluoromethyl-phenyl)-acetamide] has an IC50 of 40 nM.
With `N#Cc1cc(Cn2ccc(NC(=O)Cc3ccc(C4CC(F)(F)C4)cc3)n2)ccc1F` [Example 312, N-[1-(3-Cyano-4-fluoro-benzyl)-1H-pyrazol-3-yl]-2-[4-(3,3-difluoro-cyclobutyl)-phenyl]-acetamide] the IC50 was 10 nM.
Work on `Cc1cc(CC(=O)Nc2ccn(Cc3ccc(C#N)cn3)n2)cnc1OCC(F)(F)F` [Example 417, N-[1-(5-Cyano-pyridin-2-ylmethyl)-1H-pyrazol-3-yl]-2-[5-methyl-6-(2,2,2-trifluoro-ethoxy)-pyridin-3-yl]-acetamide] yielded an IC50 of 37 nM.
`N#Cc1ccc(Cn2ccc(NC(=O)Cc3ccc(C4(C#N)CC4)c(C(F)(F)F)c3)n2)nc1` [Example 403, 2-[4-(1-Cyano-cyclopropyl)-3-trifluoromethyl-phenyl]-N-[1-(5-cyano-pyridin-2-ylmethyl)-1H-pyrazol-3-yl]-acetamide] was tested, and the IC50 was 97 nM.
`CC1(C)COc2cc(CC(=O)Nc3ccn(Cc4ccc(C#N)cn4)n3)ccc21` [Example 387, N-[1-(5-Cyano-pyridin-2-ylmethyl)-1H-pyrazol-3-yl]-2-(3,3-dimethyl-2,3-dihydro-benzofuran-6-yl)-acetamide] gave an IC50 of 122 nM.
`O=C(Cc1ccc(N2CC(F)(F)C2)nc1)Nc1ccn(Cc2ccc(F)c(F)c2)n1` [Example 143, 2-[6-(3,3-Difluoro-azetidin-1-yl)-pyridin-3-yl]-N-[1-(3,4-difluoro-benzyl)-1H-pyrazol-3-yl]-acetamide] gave an IC50 of 19 nM.
`O=C(Cc1ccc(OC2CC2)cc1)Nc1ccn(Cc2ccc(F)cc2)n1` [Example 63, 2-(4-Cyclopropoxy-phenyl)-N-[1-(4-fluoro-benzyl)-1H-pyrazol-3-yl]-acetamide] showed an IC50 of 38 nM.
Compound `CN(c1ccc(CC(=O)Nc2ccn(Cc3ccc(C#N)cn3)n2)cn1)C1CC1` [Example 164, N-[1-(5-Cyano-pyridin-2-ylmethyl)-1H-pyrazol-3-yl]-2-[6-(cyclopropyl(methyl)amino)-pyridin-3-yl]-acetamide] has an IC50 of 568 nM.
For `CC1(c2ccc(CC(=O)Nc3ccn(Cc4ccc(F)c(C#N)c4)n3)cc2)COC1` [Example 316, N-[1-(3-Cyano-4-fluoro-benzyl)-1H-pyrazol-3-yl]-2-[4-(3-methyl-oxetan-3-yl)-phenyl]-acetamide], the IC50 was 36 nM.
Compound `Cc1ccc(Cn2ccc(NC(=O)Cc3ccc(C(C)C)cc3)n2)nc1` [Example 97, 2-(4-Isopropyl-phenyl)-N-[1-(5-methyl-pyridin-2-ylmethyl)-1H-pyrazol-3-yl]-acetamide] has an IC50 of 31 nM.
Work on `CN(C)c1ccc(CC(=O)Nc2ccn(Cc3ccc(C#N)c(F)c3)n2)cn1` [Example 58, N-[1-(4-Cyano-3-fluoro-benzyl)-1H-pyrazol-3-yl]-2-(6-dimethylamino-pyridin-3-yl)-acetamide] yielded an IC50 of 285 nM.
Work on `O=C(Cc1ccc(OCC(F)(F)F)cc1)Nc1ccn(Cc2ccc(F)cc2)n1` [Example 46, N-[1-(4-Fluoro-benzyl)-1H-pyrazol-3-yl]-2-[4-(2,2,2-trifluoro-ethoxy)-phenyl]-acetamide] yielded an IC50 of 26 nM.
Work on `N#Cc1ccc(Cn2ccc(NC(=O)Cc3ccc(OC4CC(F)(F)C4)cc3)n2)nc1` [Example 274, N-[1-(5-Cyano-pyridin-2-ylmethyl)-1H-pyrazol-3-yl]-2-[4-(3,3-difluoro-cyclobutoxy)-phenyl]-acetamide] yielded an IC50 of 133 nM.
Compound `N#Cc1ccc(Cn2ccc(NC(=O)Cc3ccc(C4(C#N)CC(F)(F)C4)cc3)n2)nc1` [Example 390, 2-[4-(1-Cyano-3,3-difluoro-cyclobutyl)-phenyl]-N-[1-(5-cyano-pyridin-2-ylmethyl)-1H-pyrazol-3-yl]-acetamide] has an IC50 of 47 nM.
`N#Cc1ccc(Cn2ccc(NC(=O)Cc3ccc(N4CCC4)cc3)n2)cc1` [Example 54, 2-(4-Azetidin-1-yl-phenyl)-N-[1-(4-cyano-benzyl)-1H-pyrazol-3-yl]-acetamide] showed an IC50 of 28 nM.
In the case of `N#Cc1ccc(Cn2ccc(NC(=O)Cc3ccc(F)cc3OCC(F)(F)F)n2)nc1` [Example 333, N-[1-(5-Cyano-pyridin-2-ylmethyl)-1H-pyrazol-3-yl]-2-[4-fluoro-2-(2,2,2-trifluoro-ethoxy)-phenyl]-acetamide], the IC50 is reported as 2790 nM.
`N#Cc1ccc(Cn2ccc(NC(=O)Cc3ccc(N4CC(F)C4)nc3)n2)nc1` [Example 159, N-[1-(5-Cyano-pyridin-2-ylmethyl)-1H-pyrazol-3-yl]-2-[6-(3-fluoro-azetidin-1-yl)-pyridin-3-yl]-acetamide] gave an IC50 of 1180 nM.
For `CC(C)c1ccc(CC(=O)Nc2ccn(Cc3ccc(F)c(F)c3)n2)cn1` [Example 88, N-[1-(3,4-Difluoro-benzyl)-1H-pyrazol-3-yl]-2-(6-isopropyl-pyridin-3-yl)-acetamide], the IC50 was 109 nM.
With `CC1(COc2ccc(CC(=O)Nc3ccn(Cc4ccc(C#N)cn4)n3)cc2)CC(F)(F)C1` [Example 303, N-[1-(5-Cyano-pyridin-2-ylmethyl)-1H-pyrazol-3-yl]-2-[4-(3,3-difluoro-1-methyl-cyclobutylmethoxy)-phenyl]-acetamide] the IC50 was 51 nM.
For `CC(C)c1ccc(CC(=O)Nc2ccn(Cc3ccc(N4CC[C@H](F)C4)cn3)n2)cc1` [Example 108, N-{1-[5-((S)-3-Fluoro-pyrrolidin-1-yl)-pyridin-2-ylmethyl]-1H-pyrazol-3-yl}-2-(4-isopropyl-phenyl)-acetamide], the IC50 was 322 nM.
`Cc1cn(C)c2ccc(CC(=O)Nc3ccn(Cc4ccc(F)c(F)c4)n3)cc12` [Example 260, N-[1-(3,4-Difluoro-benzyl)-1H-pyrazol-3-yl]-2-(1,3-dimethyl-1H-indol-5-yl)-acetamide] gave an IC50 of 3.1 nM.
`CN(C)c1ccc(CC(=O)Nc2ccn(Cc3ccc(F)c(OC(F)(F)F)c3)n2)cc1` [Example 22, 2-(4-Dimethylamino-phenyl)-N-[1-(4-fluoro-3-trifluoromethoxy-benzyl)-1H-pyrazol-3-yl]-acetamide] was tested, and the IC50 was 5 nM.
For `Cn1cnc2cc(CC(=O)Nc3ccn(Cc4ccc(F)c(F)c4)n3)ccc21` [Example 230, N-[1-(3,4-Difluoro-benzyl)-1H-pyrazol-3-yl]-2-(1-methyl-1H-benzoimidazol-5-yl)-acetamide], the IC50 was 255 nM.
`N#Cc1c(F)cc(Cn2ccc(NC(=O)Cc3ccc(OCC4CC(F)(F)C4)cc3)n2)cc1F` [Example 363, N-[1-(4-Cyano-3,5-difluoro-benzyl)-1H-pyrazol-3-yl]-2-[4-(3,3-difluoro-cyclobutylmethoxy)-phenyl]-acetamide] gave an IC50 of 51 nM.
Work on `Cn1ncc2ccc(CC(=O)Nc3ccn(Cc4cc(F)c(C#N)c(F)c4)n3)cc21` [Example 346, N-[1-(4-Cyano-3,5-difluoro-benzyl)-1H-pyrazol-3-yl]-2-(1-methyl-1H-indazol-6-yl)-acetamide] yielded an IC50 of 159 nM.
For `CN(C)c1ccc(CC(=O)Nc2ccn(Cc3ccc(C(C)(C)C)cc3)n2)cc1` [Example 18, N-[1-(4-tert-Butyl-benzyl)-1H-pyrazol-3-yl]-2-(4-dimethylamino-phenyl)-acetamide], the IC50 was 25 nM.
`CC(C)c1ccc(CC(=O)Nc2ccn(Cc3ccc(N4CCCC4)cn3)n2)cc1` [Example 395, 2-(4-Isopropyl-phenyl)-N-[1-(5-pyrrolidin-1-yl-pyridin-2-ylmethyl)-1H-pyrazol-3-yl]-acetamide] gave an IC50 of 315 nM.
With `COC1(c2ccc(CC(=O)Nc3ccn(Cc4ccc(F)c(F)c4)n3)cn2)COC1` [Example 258, N-[1-(3,4-Difluoro-benzyl)-1H-pyrazol-3-yl]-2-[6-(3-methoxy-oxetan-3-yl)-pyridin-3-yl]-acetamide] the IC50 was 934 nM.
`O=C(Cc1ccc(C2(F)COC2)nc1)Nc1ccn(Cc2ccc(F)c(F)c2)n1` [Example 315, N-[1-(3,4-Difluoro-benzyl)-1H-pyrazol-3-yl]-2-[6-(3-fluoro-oxetan-3-yl)-pyridin-3-yl]-acetamide] gave an IC50 of 240 nM.
Work on `Cn1cc(C(F)(F)F)c2cc(CC(=O)Nc3ccn(Cc4ccc(C#N)cn4)n3)ccc21` [Example 326, N-[1-(5-Cyano-pyridin-2-ylmethyl)-1H-pyrazol-3-yl]-2-(1-methyl-3-trifluoromethyl-1H-indol-5-yl)-acetamide] yielded an IC50 of 33 nM.
`COCCN(C)c1ccc(CC(=O)Nc2ccn(Cc3ccc(F)c(F)c3)n2)cn1` [Example 180, N-[1-(3,4-Difluoro-benzyl)-1H-pyrazol-3-yl]-2-{6-[(2-methoxy-ethyl)-methyl-amino]-pyridin-3-yl}-acetamide] gave an IC50 of 33 nM.
For `CC(C)c1ccc(CC(=O)Nc2ccn(Cc3ccc(N4CCC(F)(F)C4)cn3)n2)cc1` [Example 396, N-{1-[5-(3,3-Difluoro-pyrrolidin-1-yl)-pyridin-2-ylmethyl]-1H-pyrazol-3-yl}-2-(4-isopropyl-phenyl)-acetamide], the IC50 was 369 nM.
Work on `O=C(Cc1ccc(-c2ccncc2)cc1)Nc1ccn(Cc2ccc(F)cc2)n1` [Example 84, N-[1-(4-Fluoro-benzyl)-1H-pyrazol-3-yl]-2-(4-pyridin-4-yl-phenyl)-acetamide] yielded an IC50 of 18 nM.
Work on `CCN(CC)c1ccc(CC(=O)Nc2ccn(Cc3ccc(F)c(F)c3)n2)cc1` [Example 113, 2-(4-Diethylamino-phenyl)-N-[1-(3,4-difluoro-benzyl)-1H-pyrazol-3-yl]-acetamide] yielded an IC50 of 4.8 nM.
